Measurements from patent publication US6215002A, “Pyrrolopyrrolone derivatives as inhibitors of neutrophil elastase” (priority 1996, dated 2001).
Where a name gives a salt, the structure may show the parent alone.

The molecules below were run against T1, human neutrophil elastase (Homo sapiens, UniProt P08246) (assay: In vitro assay of human neutrophil elastase (HNE)). Conditions: 118 nM purified human neutrophil elastase, pH 8.6, 15 min incubation at 30° C., MeO-succinyl-alanyl-alanyl-prolyl-valyl-p-nitroanilide substrate; read-out: HNE IC50.
T1 sequence (P08246 30-267): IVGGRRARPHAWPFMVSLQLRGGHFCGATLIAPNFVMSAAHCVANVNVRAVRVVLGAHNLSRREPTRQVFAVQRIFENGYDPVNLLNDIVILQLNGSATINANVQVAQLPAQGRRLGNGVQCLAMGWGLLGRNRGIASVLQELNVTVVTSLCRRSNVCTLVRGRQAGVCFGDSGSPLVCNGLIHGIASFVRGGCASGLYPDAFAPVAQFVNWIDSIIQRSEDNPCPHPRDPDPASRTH
Format: biochemical
Method: In Vitro Assays of Human Neutrophil Elastase
118 nM purified human neutrophil elastase
Suitable concentrations of compound under test diluted with water from a 10 mM stock solution in dimethylsulphoxide. Values above are final concentrations after the addition of substrate solution (see below).
The mixture above is incubated for fifteen minutes at 30° C. at which time the remaining elastase activity is measured for 10 minutes in a BioTek 340i plate-reader, after the addition of 0.6 mM MeO-succinyl-alanyl-alanyl-prolyl-valyl-p-nitroanilide. The rate of increase in absorbance at 405 nm is proportional to elastase activity. Enzyme activity is plotted against concentration of inhibitor and an IC50 determined using curve fitting software.
1. The compounds were tested in the in vitro elastase test described earlier in the description.

Row | SMILES | IC50
1 | C=CC[C@@H]1C(=O)N(S(=O)(=O)c2ccc3ccccc3c2)[C@@H]2CCN(C(=O)OCc3ccccc3)[C@@H]12 [Example 53, (3aR,6S,6aS)-6-Allyl-4-(naphthalene-2-sulfonyl)-5-oxo-hexahydro-pyrrolo[3,2-n]pyrrole-1-carboxylic acid benzyl ester] | 0.143 µM
2 | CCC[C@H]1C(=O)N(S(C)(=O)=O)[C@H]2CCN(C(=O)Cn3ccccc3=O)[C@H]12 (relative stereo) [Example 112, rel-(3R,3aR,6aS)-1-Methanesulfonyl-4-[(2-oxo-2H-pyridin-1-yl)-acetyl]-3-propyl-hexahydro-pyrrolo[3,2-b]pyrrol-2-one] | 0.222 µM
3 | C=CC[C@H]1C(=O)N(S(=O)(=O)c2cccc3cccnc23)[C@H]2CCN(C(=O)OCc3ccccc3)[C@H]12 (relative stereo) [Example 49, rel-(3aS,6R,6aR)-6-Allyl-5-oxo-4-(quinoline-8-sulfonyl)-hexahydro-pyrrolo[3,2-b]pyrrole-1-carboxylic acid benzyl ester] | 0.412 µM
4 | CO[C@H]1C(=O)N(S(C)(=O)=O)[C@H]2CCN(C(=O)OCc3ccccc3)[C@H]12 (relative stereo) [Example 156, rel-(3aS,6R,6aS)-4-Methanesulfonyl-6-methoxy-5-oxo-hexahydro-pyrrolo[3,2-b]pyrrole-1-carboxylic acid benzyl ester] | 0.16 µM
5 | CCC[C@@H]1C(=O)N(S(=O)(=O)c2ccc3ccccc3c2)[C@@H]2CCN(C(=O)CCN3CCCCC3)[C@@H]12 [Example 54, (3S,3aS,6aR)-1-(Naphthalene-2-sulfonyl)-4-(3-piperidin-1-yl-propionyl)-3-propyl-hexahydro-pyrrolo[3,2-b]pyrrol-2-one hydrochloride] | 0.12 µM
6 | CCC[C@H]1C(=O)N(S(C)(=O)=O)[C@H]2CCN(S(=O)(=O)c3ccc(C(=O)NC)cc3)[C@H]12 (relative stereo) [Example 124, rel-(3aS,6R,6aR)-4-(4-Methanesulfonyl-5-oxo-6-hexahydro-pyrrolo[3,2-b]pyrrole-1-sulfonyl)-N-methyl-benzamide] | 0.008 µM
7 | CCC[C@H]1C(=O)N(S(C)(=O)=O)[C@H]2CCN(S(=O)(=O)c3ccc(C(=O)NC4CC4)cc3)[C@H]12 (relative stereo) [Example 125, rel-N-Cyclopropyl-4-(4-methanesulfonyl-5-oxo-6R-propyl-hexahydro-(3aS,6aR)-pyrrolo[3,2-b]pyrrole-1-sulfonyl)-benzamide] | 0.013 µM
8 | CC[C@H]1C(=O)N(S(=O)(=O)c2ccc3ccccc3c2)[C@H]2CCN(C(=O)CCN3CCCCC3)[C@H]12 (relative stereo) [Example 5, rel-(3R,3aR,6aS)-3-Ethyl-1-(naphthalene-2-sulfonyl)-4-(3-piperidin-1-yl-propionyl)-hexahydro-pyrrolo[3,2-b]pyrrol-2-one hydrochloride] | 0.205 µM
9 | CCC[C@H]1C(=O)N(S(C)(=O)=O)[C@H]2CCN(C(=O)CCNC(C)=O)[C@H]12 (relative stereo) [Example 96, rel-N-[3-(4-Methanesulfonyl-5-oxo-6R-propyl-hexahydro-(3aS,6aR)-pyrrolo[3,2-b]pyrrol-1-yl)-3-oxo-propyl]-acetamide] | 0.134 µM
10 | CCC[C@H]1C(=O)N(S(C)(=O)=O)[C@H]2CCN(C(=O)CCCCCCCCCN3CCN(C)CC3)[C@H]12 (relative stereo) [Example 69, rel-(3R,3aR,6aS)-1-Methanesulfonyl-4-[10-(4-methyl-piperazin-1-yl)-decanoyl]-3-propyl-hexahydro-pyrrolo[3,2-b]pyrrol-2-one dihydrochloride] | 0.08 µM
11 | CCC[C@H]1C(=O)N(S(C)(=O)=O)[C@H]2CCN(C(=O)CCCCCCCCCN3CCC3)[C@H]12 (relative stereo) [Example 72, rel-(3R,3aR,6aS)-4-(10-Azetidin-1-yl-decanoyl)-1-methanesulfonyl-3-propyl-hexahydro-pyrrolo[3,2-b]pyrrol-2-one DL-tartrate] | 0.037 µM
12 | CCC[C@H]1C(=O)N(S(C)(=O)=O)[C@H]2CCN(S(=O)(=O)c3ccc(S(C)(=O)=O)cc3)[C@H]12 (relative stereo) [Example 217, rel-(3R,3aR,6aS)-1-Methanesulfonyl-4-(4-methanesulfonyl-benzenesulfonyl)-3-propyl-hexahydro-pyrrolo[3,2-b]pyrrol-2-one] | 0.04 µM
13 | CCC[C@H]1C(=O)N(S(C)(=O)=O)[C@H]2CCN(S(=O)(=O)c3ccc(C(=O)N4CCN(C)CC4)cc3)[C@H]12 (relative stereo) [Example 127, rel-(3R,3aR,6aS)-1-Methanesulfonyl-4-[4-(4-methyl-piperazine-1-carbonyl)-benzenesulfonyl]-3-propyl-hexahydro-pyrrolo[3,2-b]pyrrol-2-one hydrochloride] | 0.04 µM
14 | CCC[C@H]1C(=O)N(S(C)(=O)=O)[C@H]2CCN(C(=O)CN)[C@H]12 (relative stereo) [Example 109, rel-(3R,3aR,6aS)-4-Aminoacetyl-1-methanesulfonyl-3-propyl-hexahydro-pyrrolo[3,2-b]pyrrol-2-one trifluoroacetate] | 0.096 µM
15 | CS[C@H]1C(=O)N(S(C)(=O)=O)[C@H]2CCN(C(=O)OCc3ccccc3)[C@H]12 (relative stereo) [Example 157] | 0.209 µM
16 | CCC[C@H]1C(=O)N(S(C)(=O)=O)[C@H]2CCN(S(=O)(=O)c3cccc(N)c3)[C@H]12 (relative stereo) [Example 235, rel-(3R,3aR,6aS)-4-(3-Amino-benzenesulfonyl)-1-methanesulfonyl-3-propyl-hexahydro-pyrrolo[3,2-b]pyrrol-2-one hydrochloride] | 0.009 µM
17 | CCC[C@H]1C(=O)N(S(C)(=O)=O)[C@H]2CCN(C(=O)CCCCCCCCCN(C)C)[C@H]12 (relative stereo) [Example 67, rel-(3R,3aR,6aS)-4-(10-Dimethylamino-decanoyl)-1-methanesulfonyl-3-propyl-hexahydro-pyrrolo[3,2-b]pyrrol-2-one DL-tartrate] | 0.043 µM
18 | CCC[C@H]1C(=O)N(S(C)(=O)=O)[C@H]2CCN(S(=O)(=O)c3ccc(C(=O)N4CCCCC4)cc3)[C@H]12 (relative stereo) [Example 119, rel-(3R,3aR,6aS)-1-Methanesulfonyl-4-[4-(piperidine-1-carbonyl)-benzenesulfonyl]-3-propyl-hexahydro-pyrrolo[3,2-b]pyrrol-2-one] | 0.034 µM
19 | CC(C)[C@H]1C(=O)N(S(C)(=O)=O)[C@H]2CCN(S(=O)(=O)c3ccc([N+](=O)[O-])cc3)[C@H]12 (relative stereo) [Example 229, rel-(3R,3aR,6aS)-3-Isopropyl-1-methanesulfonyl-4-(4-nitro-benzenesulfonyl)-hexahydro-pyrrolo[3,2-b]pyrrol-2-one] | 0.167 µM
20 | CCC[C@H]1C(=O)N(S(C)(=O)=O)[C@H]2CCN(C(=O)CCCN3CCCCCC3)[C@H]12 (relative stereo) [Example 86, hydrochloride] | 0.103 µM
21 | CCC[C@H]1C(=O)N(S(=O)(=O)c2cccc3ccccc23)[C@H]2CCN(C(=O)C3CCNCC3)[C@H]12 (relative stereo) [Example 17, trifluoroacetate] | 0.342 µM
22 | CCC[C@H]1C(=O)N(S(C)(=O)=O)[C@H]2CCN(C(=O)CN(CC)CC)[C@H]12 (relative stereo) [Example 101, rel-(3R,3aR,6aS)-4-Diethylaminoacetyl-1-methanesulfonyl-3-propyl-hexahydro-pyrrolo[3,2-b]pyrrol-2-one hydrochloride] | 0.169 µM
23 | CCCCOc1ccc(S(=O)(=O)N2CC[C@H]3[C@H]2[C@@H](CCC)C(=O)N3S(C)(=O)=O)cc1 (relative stereo) [Example 214, rel-(3R,3aR,6aS)-4-(4-Butoxy-benzenesulfonyl)-1-methanesulfonyl-3-propyl-hexahydro-pyrrolo[3,2-b]pyrrol-2-one] | 0.464 µM
24 | CCC[C@H]1C(=O)N(S(C)(=O)=O)[C@H]2CCN(C(=O)CCC(N)=O)[C@H]12 (relative stereo) [Example 95, rel-4-(4-Methanesulfonyl-5-oxo-6R-propyl-hexahydro-(3aS,6aR)-pyrrolo[3,2-b]pyrrol-1-yl)-4-oxo-butyramide] | 0.084 µM
25 | CCC[C@H]1C(=O)N(S(C)(=O)=O)[C@H]2CCN(C(=O)/C=C/c3ccc(CN4CCN(C)CC4)cc3)[C@H]12 (relative stereo) [Example 132, rel-(3R,3aR,6aS)-1-Methanesulfonyl-4-{3-(4-(4-methyl-piperazin-1-ylmethy)-phenyl-(E)-acryloyl}-3-propyl-hexahydro-pyrrolo[3,2-b]pyrrol-2-one dihydrochloride] | 0.083 µM
26 | CCC[C@H]1C(=O)N(S(C)(=O)=O)[C@H]2CCN(C(=O)CCCN3CCOCC3)[C@H]12 (relative stereo) [Example 47, rel-(3R,3aR,6aS)-1-Methanesulfonyl-4-(4-morpholin-4-yl-butyryl)-3-propyl-hexahydro-pyrrolo[3,2-b]pyrrol-2-one] | 0.109 µM
27 | CCC[C@H]1C(=O)N(S(C)(=O)=O)[C@H]2CCN(C(=O)Cn3ccc(=O)cc3)[C@H]12 (relative stereo) [Example 113, rel-(3R,3aR,6aS)-1-Methanesulfonyl-4-[(4-oxo-4H-pyridin-1-yl)-acetyl]-3-propyl-hexahydro-pyrrolo[3,2-b]pyrrol-2-one] | 0.304 µM
